# Earlier results as cited in patent US9961901B2, “Mectin and milbemycin nanoparticle formulations” (priority 2013, dated 2018).
# Where two headings read alike, the source gives them in different places.
# Assays:
# [1] = not given; remark: listed apart in the source
# [2] = 20° C.
Molecule,Aqueous Photolysis DT50 (pH 7),Octanol-Water Coefficient Log P [1],"Solubility, Acetone ([2]; acetone)","Solubility, Ethyl Acetate ([2]; ethyl acetate)","Solubility, Water [2]","Solubility, Methanol [2]",Aqueous Photolysis DT50 (pH 5),"Solubility, n-heptane ([2]; n-heptane)"
CC[C@H](C)[C@H]1O[C@]2(C=C[C@@H]1C)C[C@@H]1C[C@@H](C/C=C(\C)[C@@H](O[C@H]3C[C@H](OC)[C@@H](O[C@H]4C[C@H](OC)[C@@H](O)[C@H](C)O4)[C@H](C)O3)[C@@H](C)/C=C/C=C3\CO[C@@H]4[C@H](O)C(C)=C[C@@H](C(=O)O1)[C@]34O)O2 [abamectin],DT50: 1.5 d at pH 7,Log P: 4.4,"Acetone: 72,000 mg/L","Ethyl Acetate: 160,000 mg/L",Water: 1.21 mg/L,,,
emamectin,DT50: 32 d at pH 7,Log P: 5.0,,,Water: 24 mg/L,Methanol: 2700 g/L,,
milbemycin,,Log P: 6.8,,,Water 3.6 mg/L,"Methanol: 251,000 mg/L",DT50: 3 d at pH 5 (aqueous,"n-heptane: 5,060 mg/L"
